Measurements reported in PubChem BioAssay (NCI).
“And” between values parts separate entries of the source, which are not always exact repeats. Equal values may be shown once.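 Tested at 5 concentrations; 48 h exposure; 96-well plates; endpoints linearly interpolated, else capped at highest concentration. GI50 is the concentration that inhibits growth by half. TGI marks complete inhibition of growth.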

Experiments:
Assay in all cases: inhibition of tumour cell growth, NCI panel, 48 h
786-0 renal = tested on: 786-0 renal
RPMI-8226 leukemia = tested on: RPMI-8226 leukemia
CAKI-1 renal = tested on: CAKI-1 renal
HCT-116 colon = tested on: HCT-116 colon
OVCAR-3 ovarian = tested on: OVCAR-3 ovarian
SF-539 CNS = tested on: SF-539 CNS
RXF 393 renal = tested on: RXF 393 renal
HOP-62 NSCLC = tested on: HOP-62 NSCLC
UACC-257 melanoma = tested on: UACC-257 melanoma
HCT-15 colon = tested on: HCT-15 colon
COLO 205 colon = tested on: COLO 205 colon
KM12 colon = tested on: KM12 colon
MALME-3M melanoma = tested on: MALME-3M melanoma
SNB-78 CNS = tested on: SNB-78 CNS
MOLT-4 leukemia = tested on: MOLT-4 leukemia
K-562 leukemia = tested on: K-562 leukemia
HOP-18 NSCLC = tested on: HOP-18 NSCLC
A549 NSCLC = tested on: A549 NSCLC
OVCAR-4 ovarian = tested on: OVCAR-4 ovarian
HCC-2998 colon = tested on: HCC-2998 colon
TK-10 renal = tested on: TK-10 renal
UACC-62 melanoma = tested on: UACC-62 melanoma
LOX IMVI melanoma = tested on: LOX IMVI melanoma
SW-620 colon = tested on: SW-620 colon
SF-268 CNS = tested on: SF-268 CNS
LXFL 529 NSCLC = tested on: LXFL 529 NSCLC
SK-MEL-5 melanoma = tested on: SK-MEL-5 melanoma
U251 CNS = tested on: U251 CNS
OVCAR-8 ovarian = tested on: OVCAR-8 ovarian
SR leukemia = tested on: SR leukemia
KM20L2 colon = tested on: KM20L2 colon
EKVX NSCLC = tested on: EKVX NSCLC
IGROV1 ovarian = tested on: IGROV1 ovarian
NCI-H23 lung = tested on: NCI-H23 lung
OVCAR-5 ovarian = tested on: OVCAR-5 ovarian
SK-MEL-28 melanoma = tested on: SK-MEL-28 melanoma
DLD-1 colon = tested on: DLD-1 colon
HT29 colon = tested on: HT29 colon
M19-MEL melanoma = tested on: M19-MEL melanoma
SN12C renal = tested on: SN12C renal
SK-OV-3 ovarian = tested on: SK-OV-3 ovarian
XF 498 CNS = tested on: XF 498 CNS
SK-MEL-2 melanoma = tested on: SK-MEL-2 melanoma
RXF-631 renal = tested on: RXF-631 renal
ACHN renal = tested on: ACHN renal
DMS 114 small cell lung = tested on: DMS 114 small cell lung
HL-60(TB) leukemia = tested on: HL-60(TB) leukemia
NCI-H460 lung = tested on: NCI-H460 lung
SF-295 CNS = tested on: SF-295 CNS
CCRF-CEM leukemia = tested on: CCRF-CEM leukemia
M14 melanoma = tested on: M14 melanoma
NCI-H226 lung = tested on: NCI-H226 lung
NCI-H522 lung = tested on: NCI-H522 lung
DMS 273 small cell lung = tested on: DMS 273 small cell lung
SNB-19 CNS = tested on: SNB-19 CNS
SNB-75 CNS = tested on: SNB-75 CNS
UO-31 renal = tested on: UO-31 renal
HOP-92 NSCLC = tested on: HOP-92 NSCLC
A498 renal = tested on: A498 renal
MDA-MB-435 = tested on: MDA-MB-435
MCF7 breast = tested on: MCF7 breast
T-47D breast = tested on: T-47D breast
PC-3 prostate = tested on: PC-3 prostate
NCI/ADR-RES ovarian = tested on: NCI/ADR-RES ovarian
DU-145 prostate = tested on: DU-145 prostate
HS 578T breast = tested on: HS 578T breast
MDA-MB-231 breast = tested on: MDA-MB-231 breast
BT-549 breast = tested on: BT-549 breast

CCOC(=O)Cn1c(=O)[nH]c(=O)c2c1ncn2Cc1ccccc1
TGI (786-0 renal): > 100000 nM | TGI (RPMI-8226 leukemia): > 100000 nM | TGI (CAKI-1 renal): > 100000 nM | TGI (HCT-116 colon): > 100000 nM | TGI (OVCAR-3 ovarian): > 100000 nM | TGI (SF-539 CNS): > 100000 nM | TGI (RXF 393 renal): > 100000 nM | TGI (HOP-62 NSCLC): > 100000 nM | TGI (UACC-257 melanoma): > 100000 nM | TGI (HCT-15 colon): > 100000 nM | TGI (COLO 205 colon): > 100000 nM | TGI (KM12 colon): > 100000 nM | TGI (MALME-3M melanoma): > 100000 nM | TGI (SNB-78 CNS): > 100000 nM | TGI (MOLT-4 leukemia): > 100000 nM | TGI (K-562 leukemia): > 100000 nM | TGI (HOP-18 NSCLC): > 100000 nM | TGI (A549 NSCLC): > 100000 nM | TGI (OVCAR-4 ovarian): > 100000 nM | TGI (HCC-2998 colon): > 100000 nM | TGI (TK-10 renal): > 100000 nM | TGI (UACC-62 melanoma): > 100000 nM | TGI (LOX IMVI melanoma): > 100000 nM | TGI (SW-620 colon): > 100000 nM | TGI (SF-268 CNS): > 100000 nM | TGI (LXFL 529 NSCLC): > 100000 nM | TGI (SK-MEL-5 melanoma): > 100000 nM | TGI (U251 CNS): > 100000 nM | TGI (OVCAR-8 ovarian): > 100000 nM | TGI (SR leukemia): > 100000 nM | TGI (KM20L2 colon): > 100000 nM | TGI (EKVX NSCLC): > 100000 nM | TGI (IGROV1 ovarian): > 100000 nM | TGI (NCI-H23 lung): > 100000 nM | TGI (OVCAR-5 ovarian): > 100000 nM | TGI (SK-MEL-28 melanoma): > 100000 nM | TGI (DLD-1 colon): > 100000 nM | TGI (HT29 colon): > 100000 nM | TGI (M19-MEL melanoma): > 100000 nM | TGI (SN12C renal): > 100000 nM | TGI (SK-OV-3 ovarian): > 100000 nM | TGI (XF 498 CNS): > 100000 nM | TGI (SK-MEL-2 melanoma): > 100000 nM | TGI (RXF-631 renal): > 100000 nM | TGI (ACHN renal): > 100000 nM | TGI (DMS 114 small cell lung): > 100000 nM | TGI (HL-60(TB) leukemia): > 100000 nM | TGI (NCI-H460 lung): > 100000 nM | TGI (SF-295 CNS): > 100000 nM | TGI (CCRF-CEM leukemia): > 100000 nM | TGI (M14 melanoma): > 100000 nM | TGI (NCI-H226 lung): > 100000 nM | TGI (NCI-H522 lung): > 100000 nM | TGI (DMS 273 small cell lung): > 100000 nM | TGI (SNB-19 CNS): > 100000 nM | TGI (SNB-75 CNS): > 100000 nM | TGI (UO-31 renal): > 100000 nM | TGI (HOP-92 NSCLC): > 100000 nM | TGI (A498 renal): > 100000 nM

CC(C)(O)/C=C/C(=O)[C@](C)(O)[C@H]1[C@H](O)C[C@@]2(C)[C@@H]3CC=C4[C@@H](C=C(O)C(=O)C4(C)C)[C@]3(C)C(=O)C[C@]12C
GI50 (786-0 renal): 210 nM | TGI (RPMI-8226 leukemia): 2160 nM and 3570 nM and 11000 nM | GI50 (CAKI-1 renal): 211 nM and 436 nM | TGI (CAKI-1 renal): 473 nM and 813 nM | TGI (HCT-116 colon): 3630 nM and 7310 nM and 1150 nM | GI50 (SF-539 CNS): 253 nM | GI50 (HOP-62 NSCLC): 442 nM | TGI (UACC-257 melanoma): 1840 nM and 3940 nM and 1620 nM | GI50 (HCT-15 colon): 273 nM | TGI (HCT-15 colon): > 8330 nM and 3820 nM | GI50 (COLO 205 colon): 337 nM | TGI (COLO 205 colon): > 10000 nM and 7920 nM and 1350 nM | TGI (MDA-MB-435): 885 nM | TGI (KM12 colon): > 10000 nM and 2330 nM | GI50 (SNB-78 CNS): 737 nM | TGI (SNB-78 CNS): 1610 nM and 5530 nM | TGI (MCF7 breast): 10500 nM | TGI (MOLT-4 leukemia): > 7730 nM and 24600 nM | TGI (K-562 leukemia): > 9250 nM and 11200 nM | GI50 (HOP-18 NSCLC): 276 nM and 602 nM | TGI (HOP-18 NSCLC): 1330 nM and 1910 nM | TGI (A549 NSCLC): > 5820 nM and 8600 nM and 10300 nM | GI50 (OVCAR-4 ovarian): 343 nM | TGI (OVCAR-4 ovarian): 3210 nM and 4570 nM and 11500 nM | GI50 (HCC-2998 colon): 319 nM | GI50 (TK-10 renal): 360 nM and 1680 nM | TGI (TK-10 renal): 770 nM and 3230 nM | TGI (UACC-62 melanoma): 4970 nM and 8940 nM and 1760 nM | GI50 (LOX IMVI melanoma): 574 nM | TGI (LOX IMVI melanoma): 1300 nM and 3180 nM | TGI (SW-620 colon): > 4830 nM and 6870 nM and 1640 nM | GI50 (LXFL 529 NSCLC): 712 nM | TGI (LXFL 529 NSCLC): 1550 nM and 6670 nM | GI50 (SK-MEL-5 melanoma): 310 nM | TGI (SK-MEL-5 melanoma): 1230 nM and 3620 nM and 1270 nM | GI50 (U251 CNS): 229 nM | TGI (OVCAR-8 ovarian): > 10000 nM and 8100 nM | GI50 (SR leukemia): 1200 nM and 330 nM | TGI (SR leukemia): > 4600 nM and 9080 nM and 14500 nM | GI50 (KM20L2 colon): 660 nM | TGI (KM20L2 colon): > 5600 nM | TGI (T-47D breast): 4270 nM | GI50 (IGROV1 ovarian): 270 nM | TGI (IGROV1 ovarian): 688 nM and 4450 nM and 4600 nM | TGI (NCI-H23 lung): > 7190 nM and 1150 nM | TGI (SK-MEL-28 melanoma): 581 nM and 1690 nM and 244 nM | GI50 (DLD-1 colon): 291 nM and 721 nM | TGI (DLD-1 colon): > 6130 nM and 6580 nM | TGI (PC-3 prostate): 5560 nM | GI50 (M19-MEL melanoma): 929 nM and 2160 nM | TGI (M19-MEL melanoma): > 10000 nM | GI50 (SN12C renal): 431 nM | TGI (XF 498 CNS): 622 nM and 698 nM | TGI (SK-MEL-2 melanoma): 597 nM and 1320 nM and 1160 nM | GI50 (RXF-631 renal): 750 nM | TGI (RXF-631 renal): > 4220 nM and 3610 nM | GI50 (ACHN renal): 268 nM | GI50 (DMS 114 small cell lung): 2000 nM | TGI (DMS 114 small cell lung): 5210 nM and 9710 nM | GI50 (HL-60(TB) leukemia): 265 nM and 1100 nM | TGI (HL-60(TB) leukemia): 935 nM and 2540 nM | TGI (NCI/ADR-RES ovarian): 17100 nM | TGI (NCI-H460 lung): > 10000 nM and 1620 nM | GI50 (SF-295 CNS): 275 nM | GI50 (CCRF-CEM leukemia): 253 nM and 709 nM | TGI (CCRF-CEM leukemia): 2020 nM and 4520 nM | GI50 (NCI-H226 lung): 252 nM | GI50 (NCI-H522 lung): 278 nM | GI50 (DMS 273 small cell lung): 282 nM | TGI (DMS 273 small cell lung): 1260 nM and 4290 nM | TGI (DU-145 prostate): 1900 nM | GI50 (SNB-19 CNS): 407 nM | TGI (SNB-19 CNS): 1320 nM and 5450 nM and 1190 nM | TGI (HS 578T breast): 7660 nM | GI50 (SNB-75 CNS): 72.1 nM and 193 nM | TGI (MDA-MB-231 breast): 92.7 nM | GI50 (UO-31 renal): 195 nM | GI50 (HOP-92 NSCLC): 255 nM | GI50 (A498 renal): 189 nM and 522 nM | TGI (A498 renal): 392 nM and 1090 nM | TGI (BT-549 breast): 36.2 nM
